The assay deals with MDA-MB-231 cells. Description: LPS-mediated DOX resistance, AlamarBlue cell viability assay. The settings on record: Homo sapiens. Format: cell-based. How it is done:
LPS ability to mediate DOX-resistance was examined to simulate the MDR phenotype of MDA-MB-231. Herein, there is compared the sensitivity of non-stimulated MDA-MB-231 cells and LPS-stimulated cells at an optimized migratory concentration of LPS (20 µg/mL) to DOX treatment. AlamarBlue cell viability assay was used to evaluate the ability of LPS activation to induce DOX resistance. […] On the contrary, LPS-stimulated cells were 64±4% viable after 24 hr of DOX-treatment. Remarkably, pretreatment with LPS for 24 hr was clearly able to reduce chemosensitivity, lessen DOX cytotoxicity, and increase cell survival approximately to 6-fold (p-value <0.0005) after 48 hr treatment. These quantitative results provide strong evidence of inflammation-based MDR mechanism specifically to DOX treatment in MDA-MB-231 cells.
MDA-MB-231 cells were plated out in 96-well tissue culture plates at 1 ×10^4 cells per well and treated with or without LPS at concentration of (20 µg/mL) for 24 hr. Cells were then left untreated or treated simultaneously with (0.67 µg/mL) of the chemotherapeutic drug (DOX) and various doses of CS-TPP-HA-AGP NPs (50, 100, and 300 µg/ml). After further incubation for 48 or 72 hr, Cells were subjected to AlamarBlue cell viability assay. […] Fluorescence spectra were recorded at λex:550, λem:600 using BioTek Cytation 5™ multi-mode Microplate Reader-Gen5™ software.
For orientation: Alamar Blue is a resazurin reagent that responds to reducing activity.

SMILES strings stand for the structures. Like-named read-outs stand apart in the source and are kept apart here.

The term viability denotes a per cent measure of how many cells are alive, often set against a control. Consider `COc1cccc2c1C(=O)c1c(O)c3c(c(O)c1C2=O)C[C@@](O)(C(=O)CO)C[C@@H]3O[C@H]1C[C@H](N)[C@H](O)[C@H](C)O1` [DOX, doxorubicin], for which the viability at 0.67 µg/mL reads like this: (MDA-MB-231, 24 h, read-out: cell viability) 64 ± 4%; (MDA-MB-231, read-out: cell viability) 11 ± 10%.

The record behind these values is patent US20230248659A1, “IMMUNE SUPPRESSING NANOPARTICLES FOR ROBUST SENSITIZATION OF DRUG-RESISTANT CANCER” (King Abdulaziz City for Science and Technology ( KACST), priority 2021, published 2023).
